According to US20230119082A1, “(AZIRIDINYL HYDROXY)-FUNCTIONAL ORGANIC COMPOUNDS” (COVESTRO (NETHERLANDS) B.V., priority 2020, published 2023):

What was measured:
Bscl2-GFP = test: in vitro; conditions: mouse; for fold induction at 3 h / fold induction at 24 h: −fold induction Bscl 2
Experimental: (§1) In the context of the specification, the genotoxicity is measured according to the ToxTracker® assay (Toxys, Leiden, the Netherlands) as described in the Examples.
(§2) The genotoxicity was determined according to the ToxTracker® assay (Toxys, Leiden, the Netherlands) as described below.
(§3) This methodology uses a two-step approach.
(§4) Positive reference treatment with cisplatin (DNA damage) was included in all experiments. Metabolic was evaluated by the addition of S9 liver extract. […] Only GFP expression in single intact cells is determined. Mean GFP fluorescence and cell concentrations in each well are measured, which is used for cytotoxicity assessment. Data were analyzed using ToxPlot software (Toxys, Leiden, the Netherlands).

Rtkn-GFP = test: in vitro; conditions: mouse
Experimental: as §1, §2, §3, §4

`CC1CN1CC(O)CN(Cc1cccc(CN(CC(O)CN2CC2C)CC(O)CN2CC2C)c1)CC(O)CN1CC1C` (stereo not drawn) [Example 2C] was tested, and the fold induction at 3 h (Bscl2-GFP) was 1.3 and the fold induction at 24 h (Bscl2-GFP) was 1.3.

In the case of `CC1CN1CC(O)COc1ccc(N(CC(O)CN2CC2C)CC(O)CN2CC2C)cc1` (stereo not drawn) [Example 3C], the fold induction at 3 h (Bscl2-GFP) is reported as 1.2, the fold induction at 24 h (Bscl2-GFP) is reported as 1.1 and the fold induction at 24 h (Rtkn-GFP) is reported as 1.7.

`CC1CN1CC(O)COC(=O)NCCCCCCn1c(=O)n(CCCCCCNC(=O)OCC(O)CN2CC2C)c(=O)n(CCCCCCNC(=O)OCC(O)CN2CC2C)c1=O` (stereo not drawn) [Example 3] was tested, and the “−fold induction Bscl 2” value (Bscl2-GFP; 3 h) was 1.5 fold, the fold induction at 3 h (Bscl2-GFP) was 1.2 and the fold induction at 24 h (Bscl2-GFP) was 1.1. It also gave a fold induction at 3 h (Rtkn-GFP) of 1.1 and a fold induction at 24 h (Rtkn-GFP) of 1.2.

With `CC1CN1CC(O)COc1ccc(C(C)(C)c2ccc(OCC(O)CN3CC3C)cc2)cc1` (stereo not drawn) [Example 4C] the fold induction at 3 h (Bscl2-GFP) was 1.1 and the fold induction at 24 h (Bscl2-GFP) was 1.1.
